Read-outs that look alike come from different tables or passages of the source. Where only a bound is given, the exact number is not on record here.

In series [1] the test system is CEREP BioPrint (P22-p) panel. The experiment in a line: CEREP BioPrint. It is filed as binding. The note with it: 10 μM.
Another series addresses T1, PI3Kδ (Homo sapiens, UniProt O00329).
T1 sequence (O00329 1-1044): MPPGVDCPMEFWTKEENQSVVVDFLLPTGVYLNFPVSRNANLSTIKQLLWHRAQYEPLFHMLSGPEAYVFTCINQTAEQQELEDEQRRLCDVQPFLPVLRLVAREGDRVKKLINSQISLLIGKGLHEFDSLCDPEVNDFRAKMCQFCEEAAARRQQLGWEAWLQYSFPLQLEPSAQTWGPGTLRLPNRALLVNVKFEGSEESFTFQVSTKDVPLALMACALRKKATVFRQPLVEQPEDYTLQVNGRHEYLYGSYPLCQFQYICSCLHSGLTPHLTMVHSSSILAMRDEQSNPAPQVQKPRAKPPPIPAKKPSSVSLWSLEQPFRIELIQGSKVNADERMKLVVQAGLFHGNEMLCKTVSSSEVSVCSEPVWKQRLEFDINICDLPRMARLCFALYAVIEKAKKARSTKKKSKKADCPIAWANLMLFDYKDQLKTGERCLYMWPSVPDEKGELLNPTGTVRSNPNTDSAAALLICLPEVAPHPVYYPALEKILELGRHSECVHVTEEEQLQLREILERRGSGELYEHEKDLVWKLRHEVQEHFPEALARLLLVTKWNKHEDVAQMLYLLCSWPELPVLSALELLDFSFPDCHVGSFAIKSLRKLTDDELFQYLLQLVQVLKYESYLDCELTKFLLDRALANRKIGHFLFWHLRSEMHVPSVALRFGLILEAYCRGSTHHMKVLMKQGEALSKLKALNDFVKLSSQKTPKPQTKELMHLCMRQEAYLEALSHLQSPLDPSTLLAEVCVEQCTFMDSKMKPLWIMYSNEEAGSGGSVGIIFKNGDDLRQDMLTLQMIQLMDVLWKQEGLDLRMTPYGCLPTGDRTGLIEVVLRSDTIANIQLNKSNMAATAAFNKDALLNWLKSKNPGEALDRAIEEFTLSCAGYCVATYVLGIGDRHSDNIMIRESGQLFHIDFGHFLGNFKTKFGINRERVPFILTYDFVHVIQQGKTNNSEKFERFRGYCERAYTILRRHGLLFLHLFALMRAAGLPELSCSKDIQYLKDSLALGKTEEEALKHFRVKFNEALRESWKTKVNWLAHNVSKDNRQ
The experiment in a line: DiscoverX KdELECT. The conditions noted are these: Inhibitor binding constant Kd PI3Kδ, third PI3K column of Table S2.

The target in a further series is PI3Kγ (Homo sapiens, UniProt P48736). The experiment in a line: DiscoverX KdELECT. The note with it: Inhibitor binding constant Kd PI3Kγ, fourth PI3K column of Table S2.
PI3Kγ, sequence (P48736 whole entry): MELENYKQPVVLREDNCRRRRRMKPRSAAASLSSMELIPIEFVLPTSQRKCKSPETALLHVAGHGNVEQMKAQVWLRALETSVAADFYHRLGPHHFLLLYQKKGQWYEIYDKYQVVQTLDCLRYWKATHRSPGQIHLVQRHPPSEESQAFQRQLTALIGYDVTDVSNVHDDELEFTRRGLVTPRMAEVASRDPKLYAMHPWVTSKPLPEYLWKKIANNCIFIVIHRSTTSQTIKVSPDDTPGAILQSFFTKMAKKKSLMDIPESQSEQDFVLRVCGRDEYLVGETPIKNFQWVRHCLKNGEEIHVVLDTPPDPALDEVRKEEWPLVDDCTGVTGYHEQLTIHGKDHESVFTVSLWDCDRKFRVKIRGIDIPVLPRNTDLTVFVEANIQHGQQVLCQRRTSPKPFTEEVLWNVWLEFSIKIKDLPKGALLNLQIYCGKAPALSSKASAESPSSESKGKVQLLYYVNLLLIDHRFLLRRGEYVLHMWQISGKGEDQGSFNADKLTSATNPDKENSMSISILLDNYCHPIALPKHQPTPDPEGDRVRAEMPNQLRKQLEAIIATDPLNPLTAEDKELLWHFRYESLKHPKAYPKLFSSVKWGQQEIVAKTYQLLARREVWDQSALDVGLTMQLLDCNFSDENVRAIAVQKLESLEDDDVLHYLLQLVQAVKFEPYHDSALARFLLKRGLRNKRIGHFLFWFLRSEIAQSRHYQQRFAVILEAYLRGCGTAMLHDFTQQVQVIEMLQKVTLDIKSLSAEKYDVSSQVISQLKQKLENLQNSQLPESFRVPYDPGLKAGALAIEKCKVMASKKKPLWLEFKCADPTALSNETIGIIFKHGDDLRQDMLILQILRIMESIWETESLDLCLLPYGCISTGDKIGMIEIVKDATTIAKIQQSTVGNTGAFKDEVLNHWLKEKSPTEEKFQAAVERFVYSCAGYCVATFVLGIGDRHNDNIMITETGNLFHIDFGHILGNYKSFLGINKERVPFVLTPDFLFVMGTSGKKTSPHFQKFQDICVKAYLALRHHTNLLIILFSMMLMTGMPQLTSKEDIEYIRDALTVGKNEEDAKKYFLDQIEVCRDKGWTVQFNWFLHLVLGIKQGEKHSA
Series [2] is described as follows: Liver microsome stability. Type of series: in vitro ADME. The note with it: rat, liver microsomes, pH 7.4. On the technique in general: Liver microsomes are vesicles of endoplasmic reticulum, rich in cytochrome P450 enzymes.
A further series in a line: Pharmacokinetics in mice. The note with it: plasma, 10 mg/kg p.o.
In the next series the test system is 66 cancer cell lines. The experiment in a line: NTRC Oncolines proliferation, panel mean. It is filed as cell-based. The conditions noted are these: read-out: mean half-maximal growth inhibition (GI50).
A short description of series [3]: Liver microsome stability. It is filed as in vitro ADME. The conditions noted are these: dog, liver microsomes, pH 7.4.
Another series has as its target PI3Kβ (Homo sapiens, UniProt P42338). The experiment in a line: DiscoverX KdELECT. The note with it: Inhibitor binding constant Kd PI3Kβ, second PI3K column of Table S2.
Series [4] has as its system protein and lipid kinases (KINOMEScan panel). The experiment in a line: KINOMEScan panel selectivity. Type of series: binding. The conditions noted are these: 10 μM.
Series [5] in a line: Liver microsome stability. It is filed as in vitro ADME. The note with it: human, liver microsomes, pH 7.4.
The subject of series [6] is OVCAR-3 xenograft. The experiment in a line: OVCAR-3 xenograft model. Type of series: in vivo, BALB/c nude mice. The conditions noted are these: 6.3 mg/kg p.o. QD.
Another series deals with PI3Kα (Homo sapiens, UniProt P42336). Briefly: DiscoverX KdELECT. The note with it: Inhibitor binding constant Kd PI3Kα, first PI3K column of Table S2.
PI3Kα, sequence (P42336 whole entry): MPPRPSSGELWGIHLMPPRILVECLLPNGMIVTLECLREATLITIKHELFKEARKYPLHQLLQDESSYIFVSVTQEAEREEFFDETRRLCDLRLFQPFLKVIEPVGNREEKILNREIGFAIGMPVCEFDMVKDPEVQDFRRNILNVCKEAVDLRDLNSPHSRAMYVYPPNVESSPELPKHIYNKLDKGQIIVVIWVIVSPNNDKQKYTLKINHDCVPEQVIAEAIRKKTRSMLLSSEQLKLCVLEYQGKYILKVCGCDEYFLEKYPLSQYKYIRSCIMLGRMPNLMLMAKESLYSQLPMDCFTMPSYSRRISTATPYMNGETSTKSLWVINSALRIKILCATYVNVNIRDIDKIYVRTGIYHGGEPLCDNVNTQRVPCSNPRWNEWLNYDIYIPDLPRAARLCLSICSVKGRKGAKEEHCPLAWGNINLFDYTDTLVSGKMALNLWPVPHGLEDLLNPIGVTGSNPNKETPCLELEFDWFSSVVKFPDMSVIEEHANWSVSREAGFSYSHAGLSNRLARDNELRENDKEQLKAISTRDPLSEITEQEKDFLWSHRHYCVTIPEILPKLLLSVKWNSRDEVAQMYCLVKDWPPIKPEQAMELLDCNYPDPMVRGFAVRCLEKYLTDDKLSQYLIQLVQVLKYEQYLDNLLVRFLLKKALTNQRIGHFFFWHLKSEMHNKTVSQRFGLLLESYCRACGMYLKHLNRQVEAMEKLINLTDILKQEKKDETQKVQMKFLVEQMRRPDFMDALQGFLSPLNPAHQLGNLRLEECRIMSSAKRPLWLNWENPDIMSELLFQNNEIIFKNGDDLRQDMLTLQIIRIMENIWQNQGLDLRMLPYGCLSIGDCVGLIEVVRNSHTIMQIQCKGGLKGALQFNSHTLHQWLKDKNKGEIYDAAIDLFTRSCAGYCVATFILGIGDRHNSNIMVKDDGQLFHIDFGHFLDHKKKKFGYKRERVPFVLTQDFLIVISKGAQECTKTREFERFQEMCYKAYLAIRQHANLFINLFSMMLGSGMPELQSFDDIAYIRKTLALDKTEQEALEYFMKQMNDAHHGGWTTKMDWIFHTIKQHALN
Series [7] relates to 44 tumor cell lines. Briefly: NTRC Oncolines proliferation, panel mean. It is filed as cell-based. The conditions noted are these: 4-4 cell.
Series [8] relates to OVCAR-3 xenograft. The note with it: 50 mg/kg p.o. QD for 28 days, day 45; cited from earlier work.
In series [9] the test system is 44 tumor cell lines. The note with it: matched 44 cell line panel; cited from earlier work.

PI3Kβ, sequence (P42338 whole entry): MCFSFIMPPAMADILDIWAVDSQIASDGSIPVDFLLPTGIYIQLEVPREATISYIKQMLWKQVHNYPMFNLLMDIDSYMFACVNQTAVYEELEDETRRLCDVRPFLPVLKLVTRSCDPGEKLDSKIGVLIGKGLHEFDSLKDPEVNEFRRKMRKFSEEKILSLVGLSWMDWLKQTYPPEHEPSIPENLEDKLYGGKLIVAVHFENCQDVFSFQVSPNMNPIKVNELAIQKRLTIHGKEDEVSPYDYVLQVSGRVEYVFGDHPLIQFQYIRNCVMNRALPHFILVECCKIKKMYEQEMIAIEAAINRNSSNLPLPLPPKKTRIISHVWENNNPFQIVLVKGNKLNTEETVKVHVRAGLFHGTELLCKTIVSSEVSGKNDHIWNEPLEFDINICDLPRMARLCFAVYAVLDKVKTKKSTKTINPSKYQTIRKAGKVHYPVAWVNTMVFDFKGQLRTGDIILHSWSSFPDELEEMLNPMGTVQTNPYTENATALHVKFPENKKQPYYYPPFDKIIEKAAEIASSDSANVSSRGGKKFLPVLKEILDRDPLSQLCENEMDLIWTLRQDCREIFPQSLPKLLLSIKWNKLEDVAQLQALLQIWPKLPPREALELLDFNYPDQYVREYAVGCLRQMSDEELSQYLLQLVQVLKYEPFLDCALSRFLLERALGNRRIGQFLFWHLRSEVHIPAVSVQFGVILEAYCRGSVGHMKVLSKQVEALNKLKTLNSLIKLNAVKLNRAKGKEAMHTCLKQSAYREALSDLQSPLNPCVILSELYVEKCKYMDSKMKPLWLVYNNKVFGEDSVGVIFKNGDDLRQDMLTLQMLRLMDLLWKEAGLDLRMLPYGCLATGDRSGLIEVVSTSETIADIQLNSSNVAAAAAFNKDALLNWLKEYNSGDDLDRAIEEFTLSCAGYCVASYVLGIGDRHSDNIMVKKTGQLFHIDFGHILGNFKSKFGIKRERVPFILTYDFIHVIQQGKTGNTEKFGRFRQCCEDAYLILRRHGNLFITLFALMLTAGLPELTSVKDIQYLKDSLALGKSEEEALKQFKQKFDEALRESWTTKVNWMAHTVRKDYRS

Take `Nc1ncc(-c2nc(N3CCOCC3)nc(N3CCOCC3)n2)c(C(F)F)n1` [PQR514 (4)]: the off-target interactions entry in series [1] was “With the exception of human PDE3A (phosphodiesterase 3A), no or very weak interactions were detected”. Also, the Kd on PI3Kδ, at PI3Kγ, at PI3Kβ and at PI3Kα was below 7 nM in each case. The amount remaining at 0.5 h, 1 µM in series [2] turned out to be 109 ± 10.7%; in [3], 92.7 ± 0.2%; in [5], 87.2 ± 3.5%. Also, in “Pharmacokinetics in mice”, the Cl was determined as 15.6 mL/min/kg. The GI50 (usually the concentration at which growth is held to half of that of the control) in the series on 66 cancer cell lines came to 250 nM; in the series with 44 tumor cell lines [7] it was 240 nM. In addition, the “interference with protein kinase activities” value in series [4] is “negligible interference with protein kinase activities”. The “body weight / tolerability” value with OVCAR-3 xenograft [6] is recorded as “no significant body weight loss was observed”. For the same compound, in the series on OVCAR-3 xenograft [6] (day 45), the “tumor weight analysis vs vehicle” value is “significantly inhibited tumor growth”.

Turning to `Nc1cc(C(F)(F)F)c(-c2nc(N3CCOCC3)nc(N3CCOCC3)n2)cn1` [PQR309 (1), 5-(4,6-Dimorpholino-1,3,5-triazin-2-yl)-4-(trifluoromethyl)pyridin-2-amine], in the series on OVCAR-3 xenograft [8], the mean tumor size is on record as 571 mm^3. Besides, the GI50 in the series on 44 tumor cell lines [9] was around 1000 nM.

As for `C[C@H]1COCCN1c1nc(-c2cnc(N)cc2C(F)F)nc(N2CCOCC2)n1` [PQR530 (16), (S)-4-(Difluoromethyl)-5-(4-(3-methylmorpholino)-6-morpholino-1,3,5-triazin-2-yl)p yridin-2-amine], in the series with 44 tumor cell lines [9], the GI50 was around 400 nM.

Values taken from PMC6792169 (ACS Medicinal Chemistry Letters, 2019).
